{
  "source": "patent US20250186491A1",
  "about": "“COMPOSITIONS AND METHODS FOR TREATING CANCER WITH CHIMERIC TIM RECEPTORS IN COMBINATION WITH INHIBITORS OF POLY (ADP-RIBOSE) POLYMERASE” (CERO THERAPEUTICS HOLDINGS, INC., priority 2020, published 2025)",
  "key": {"[1]": {"system": "Kuramochi ovarian cancer cells", "test": "Kuramochi cell number under PARP inhibitors, tracked via imaging", "type": "cell-based, human", "details": "for elimination of the Kuramochi culture: by t=50 h; for EC50 values (ranking), number of Kuramochi cells: five PARP inhibitors compared", "method": "Kuramochi ovarian cancer cells expressing an mCherry-NLS plasmid were incubated with 0.78 to 100 uM of the PARP inhibitor Niraparib. The number of Kuramochi cells/well was tracked via imaging."}, "Kuramochi cells": {"system": "Kuramochi cells", "method": "FIG. 8A: Flow cytometry measurement of surface PtdSer. Kuramochi cells were treated with 1.56 or 25 μM Niraparib or with equivalent volume of DMSO (control). 48 hours later samples were trypsinized and stained using a Tim4-Fc followed by a fluorescently-labeled secondary anti body to the Tim4-Fc. FIG. 8B: Kuramochi cells pre-treated for ˜20 hours with 1.56 μM Niraparib were co-cultured with pCTX133 and Untransduced CD4 T cells from donor 32 at a 2:1 T cell:Kuramochi ratio and a final Niraparib concentration of 1.56 μM. […] All data were collected via IncuCyte.\n(§1) Flow cytometry measurement of surface PS: A2780-mCh-NLS cells were treated with […] Niraparib or with equivalent volume of DMSO (control). 48 hours later samples were trypsinized and stained using a Tim4-Fc followed by a fluorescently-labeled secondary antibody to the Tim4-Fc. Samples were immediately analyzed via Flow cytometry."}, "A2780-mCh-NLS cells": {"system": "A2780-mCh-NLS cells", "details": "FIG. 11A", "method": "as §1"}},
  "data": [
    {"smiles": "NC(=O)c1cccc2cn(-c3ccc([C@@H]4CCCNC4)cc3)nc12", "note": "[Niraparib]", "values": [
      {"measurement": "number of Kuramochi cells in culture", "setting": "[1]; Niraparib 0.78 to 100 uM, t=50, FIG. 1A", "result": "decreases monotonically with increasing Niraparib concentration"},
      {"measurement": "elimination of the Kuramochi culture", "setting": "[1]; FIG. 1B", "result": "almost eliminate the Kuramochi culture"},
      {"measurement": "EC50 values (ranking), number of Kuramochi cells", "setting": "[1]; t=50 h, FIG. 1B", "result": "most sensitive EC50 values"},
      {"measurement": "membrane phospholipid symmetry (Ptd-Ser exposure)", "setting": "Kuramochi cells; BRCA-2 mutated Kuramochi, brief exposure, 1.56 or 25 μM, FIG. 8A", "result": "elicits changes in membrane phospholipid symmetry, in a dose dependent manner"},
      {"measurement": "growth of Kuramochi cells", "setting": "Kuramochi cells; FIG. 8A", "result": "effective in inhibiting growth"},
      {"measurement": "Tim4-Fc MFI", "setting": "Kuramochi cells; Kuramochi, 25 μM Niraparib vs DMSO, FIG. 11B", "result": "increase"},
      {"measurement": "concentration at which anti-tumor effect begins", "setting": "Kuramochi cells; Kuramochi, FIG. 11B", "result": "at least 25 μM"},
      {"measurement": "Tim4-Fc MFI", "setting": "A2780-mCh-NLS cells; 1.56 and 25 μM Niraparib vs DMSO", "result": "increase"},
      {"measurement": "concentration at which anti-tumor effect begins", "setting": "A2780-mCh-NLS cells", "result": "at least 1.56 μM"}
    ]},
    {"smiles": "CNCc1ccc(-c2[nH]c3cc(F)cc4c3c2CCNC4=O)cc1", "note": "[Rucaparib]", "values": [
      {"measurement": "elimination of the Kuramochi culture", "setting": "[1]; FIG. 1B", "result": "almost eliminate the Kuramochi culture"}
    ]},
    {"smiles": "Cn1ncnc1[C@H]1c2n[nH]c(=O)c3cc(F)cc(c23)N[C@@H]1c1ccc(F)cc1", "note": "[Talazoparib]", "values": [
      {"measurement": "EC50 values (ranking), number of Kuramochi cells", "setting": "[1]; t=50 h, FIG. 1B", "result": "most sensitive EC50 values"}
    ]},
    {"smiles": "C[C@]1(c2nc3c(C(N)=O)cccc3[nH]2)CCCN1", "note": "[Veliparib]", "values": [
      {"measurement": "impact on the number of detected Kuramochi cells", "setting": "[1]; t=50 h, of the five PARP inhibitors tested, FIG. 1B", "result": "least impact"}
    ]}
  ]
}
